# In patent US20070081967A1, “Revitalizing hair follicles with total parenteral nutrition or hyperalimentation for maximum hair growth” (priority 2005, published 2007):
# Entries after “also recorded” stand apart in the source; their conditions may differ.
# Experiments:
# [1] = Solubility of ingredients in solvents during preparation; conditions: qualitative
# Description: 3 grams of azelaic acid was ground up into a powder from “hairs” of this dicarboxylic acid. […] Next, 50 mg of vinpocetine is added to the mortar and also ground to a powder. The use of 10 mg tablets of vinpocetine can be used if the raw material in not available. […] At this point 26 cc (or ml) of isopropyl alcohol is added to the mortar and mixed to form the first suspension. […] These two powders are soluble in water which 5 ml of sterile water is added and stirred. At the point the two products can be combines with the final addition of 12 ml of propylene glycol. […] The final volume of 60 ml can be achieved by the “qs” or “adding up to” the 60 ml mark with sterile water.
# alopecia = conditions: cited from earlier work
Compound,solubility in isopropyl alcohol [1],solubility in organic solvents ([1]; solvents named in value),time to loss of new hair after treatment is stopped (alopecia; after finasteride treatment is stopped) [year],"time to occurrence of hair growth (alopecia; balding men, after start of use)",success rate for treating alopecia (alopecia; reported success rate) [%]
"CCOC(=O)C1=C[C@]2(CC)CCCN3CCc4c(n1c1ccccc41)[C@@H]32 [Vinpocetine, 14-ethoxycarbonyl-3 alpha, 16 alpha-ethyl-14, 15-ebumamine]",slightly soluable,"only soluable in DMSO, 100% ethanol or acetone; also recorded: only soluble in DMSO, 100% ethanol or acetone",–,–,–
CC(C)(C)NC(=O)[C@H]1CC[C@H]2[C@@H]3CC[C@H]4NC(=O)C=C[C@]4(C)[C@H]3CC[C@]12C [Finasteride],–,–,≤ 1,about 3 months,40
